Reference: patent publication US8435990B2, “Dihydropyrimidone amides as P2X7 modulators” (Roche Palo Alto LLC, priority 2009, dated 2013)

Molecular target: T1, human P2X7 (Homo sapiens, UniProt Q99572)
T1 construct: 1321N1 cells stably expressing the full length human P2X7 gene (1321N1-hP2X7)
T1 sequence (Q99572 1-595): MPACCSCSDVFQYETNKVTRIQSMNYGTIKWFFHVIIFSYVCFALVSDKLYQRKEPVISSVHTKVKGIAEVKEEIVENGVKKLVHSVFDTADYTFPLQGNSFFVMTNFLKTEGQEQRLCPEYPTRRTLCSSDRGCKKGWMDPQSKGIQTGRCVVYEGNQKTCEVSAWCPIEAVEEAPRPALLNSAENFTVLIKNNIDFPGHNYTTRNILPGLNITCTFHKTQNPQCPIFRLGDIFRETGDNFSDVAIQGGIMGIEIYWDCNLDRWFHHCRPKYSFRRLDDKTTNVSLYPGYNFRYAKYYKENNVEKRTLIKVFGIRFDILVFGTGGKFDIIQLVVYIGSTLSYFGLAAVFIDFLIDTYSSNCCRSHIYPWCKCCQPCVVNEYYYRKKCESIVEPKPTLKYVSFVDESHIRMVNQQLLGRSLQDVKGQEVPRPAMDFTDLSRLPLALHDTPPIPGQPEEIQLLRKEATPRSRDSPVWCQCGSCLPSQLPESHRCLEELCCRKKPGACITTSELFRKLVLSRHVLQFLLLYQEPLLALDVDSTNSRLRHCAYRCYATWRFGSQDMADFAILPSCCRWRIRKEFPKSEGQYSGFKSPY
Assay: P2X7 modulator pIC50 of Table 1 (assay not given; Intracellular Calcium Flux (FLIPR) Assay assumed)
Assay type: cell-based
Method in brief: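 1321N1 cells expressing human P2X7, fluo-3 loaded, pre-equilibrated 20 min at RT with antagonist; 100 μM BzATP agonist added and calcium fluorescence recorded 5 min on FLIPR. BzATP-evoked maximum normalised to 5 μM ionomycin response. HEK293 rat P2X7 cells used 5 μM BzATP.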

Row | IC50 | SMILES
1 | 19.3 nM | Cc1cc(F)c(-n2ncccc2=O)cc1NC(=O)C1=CN(C)C(=O)N[C@H]1c1ccc(F)cc1 [Compound 69, (S)-4-(4-Fluoro-phenyl)-1-methyl-2-oxo-1,2,3,4-tetrahydro-pyrimidine-5-carboxylic acid [4-fluoro-2-methyl-5-(6-oxo-6H-pyridazin-1-yl)-phenyl]-amide]
2 | 26 nM | Cc1ccc(-n2ccc(=O)[nH]c2=O)cc1NC(=O)C1=CN(C)C(=O)N[C@H]1c1ccc(F)cc1 [Compound 48, (S)-4-(4-Fluoro-phenyl)-1-methyl-2-oxo-1,2,3,4-tetrahydro-pyrimidine-5-carboxylic acid [5-(2,4-dioxo-3,4-dihydro-2H-pyrimidin-1-yl)-2-methyl-phenyl]-amide]
3 | 19.5 nM | Cc1cc(Cl)c(-n2cccc(C)c2=O)cc1NC(=O)C1=CN(C)C(=O)N[C@H]1c1ccc(F)cc1 [Compound 66, (S)-4-(4-Fluoro-phenyl)-1-methyl-2-oxo-1,2,3,4-tetrahydro-pyrimidine-5-carboxylic acid [4-chloro-2-methyl-5-(3-methyl-2-oxo-2H-pyridin-1-yl)-phenyl]-amide]
4 | 53.7 nM | CCc1c(NC(=O)C2=CN(C)C(=O)N[C@H]2c2ccc(F)cc2)ccc2nc(C)ccc12 [Compound 34, (S)-4-(4-Fluoro-phenyl)-1-methyl-2-oxo-1,2,3,4-tetrahydro-pyrimidine-5-carboxylic acid (5-ethyl-2-methyl-quinolin-6-yl)-amide]
5 | 19.7 nM | Cc1cc(-c2ccc(C)c(NC(=O)C3=CNC(=O)N[C@H]3c3ccc(F)cc3)c2)n[nH]1 [Compound 5, (S)-4-(4-Fluoro-phenyl)-2-oxo-1,2,3,4-tetrahydro-pyrimidine-5-carboxylic acid [2-methyl-5-(5-methyl-1H-pyrazol-3-yl)-phenyl]-amide]
6 | 196 nM | COc1cc(C)c(NC(=O)C2=CN(C)C(=O)N(C)C2c2ccc(F)cc2)cc1OC (stereo not shown) [Compound 9, 4-(4-Fluoro-phenyl)-1,3-dimethyl-2-oxo-1,2,3,4-tetrahydro-pyrimidine-5-carboxylic acid (4,5-dimethoxy-2-methyl-phenyl)-amide]
7 | 15 nM | Cc1cc(Cl)c(OCCO)cc1NC(=O)C1=CN(C)C(=O)NC1c1ccccc1 (stereo not shown) [Compound 62, 1-Methyl-2-oxo-4-phenyl-1,2,3,4-tetrahydro-pyrimidine-5-carboxylic acid [4-chloro-5-(2-hydroxy-ethoxy)-2-methyl-phenyl]-amide]
